Data taken from patent US11566007B2, “Ras inhibitors” (Revolution Medicines, Inc., priority 2019, dated 2023).

Columns and labels:
K-Ras G13C = K-Ras G13C (Homo sapiens (Human), UniProt P01116+P62937, G13C); assay: Ras-Raf (BRAF RBD) disruption / FRET / MOA assay, KRAS G13C; format: biochemical; details: KRAS G13C; Ras-Raf disruption/FRET/MOA assay; read-out: IC50* KRAS G13C FRET data
In short: (§1)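 Compounds, top final concentration 30 μM in 10-point 3-fold series, incubated 3 hours at 25° C with nucleotide-loaded Ras, cyclophilin A and BRAF RBD.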

KRAS G12D = KRAS G12D (Homo sapiens (Human), UniProt P01116+P62937, G12D); assay: Ras-Raf (BRAF RBD) disruption / FRET / MOA assay, KRAS G12D; format: biochemical; details: Ras-Raf disruption/FRET/MOA assay; class symbols; read-out: KRAS G12D FRET data IC50
KRAS G12D, sequence (P01116-2 other isoform, or with tags, fused parts or gaps G12D): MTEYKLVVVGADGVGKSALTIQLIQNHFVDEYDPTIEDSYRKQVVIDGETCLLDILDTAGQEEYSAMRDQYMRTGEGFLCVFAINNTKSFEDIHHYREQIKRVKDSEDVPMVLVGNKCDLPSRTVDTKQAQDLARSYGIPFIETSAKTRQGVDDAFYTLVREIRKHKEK
KRAS G12D, sequence (P62937 whole entry): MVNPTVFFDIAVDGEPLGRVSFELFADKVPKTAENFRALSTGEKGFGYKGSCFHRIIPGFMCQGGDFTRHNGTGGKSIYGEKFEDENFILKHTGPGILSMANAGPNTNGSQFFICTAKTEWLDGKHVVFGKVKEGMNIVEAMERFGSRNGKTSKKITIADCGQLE
In short: as §1

NCI-H358 (K-Ras G12C) = assay: CellTiter-Glo cell viability assay, NCI-H358; format: cell-based, human; details: Homo sapiens, NCI-H358, 120 h, NCI-H358, 5-day treatment; class symbols; read-out: Additional H358 Cell Viability assay data (K-Ras G12C, IC50)
In short: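 Compounds dispensed directly onto seeded K-Ras mutant cells; plates read on day 5 after ~30 min equilibration to room temperature, by CellTiter-Glo luminescence. Signal normalized as (sample/mean DMSO)×100, then fitted to a four-parameter logistic curve.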

NRAS Q61R = NRAS Q61R (Homo sapiens (Human), UniProt P01111+P62937, Q61R); assay: Ras-Raf (BRAF RBD) disruption / FRET / MOA assay, NRAS Q61R; format: biochemical; details: NRAS Q61R; Ras-Raf disruption/FRET/MOA assay; read-out: IC50* NRAS Q61R FRET data
NRAS Q61R, sequence (P01111 whole entry Q61R): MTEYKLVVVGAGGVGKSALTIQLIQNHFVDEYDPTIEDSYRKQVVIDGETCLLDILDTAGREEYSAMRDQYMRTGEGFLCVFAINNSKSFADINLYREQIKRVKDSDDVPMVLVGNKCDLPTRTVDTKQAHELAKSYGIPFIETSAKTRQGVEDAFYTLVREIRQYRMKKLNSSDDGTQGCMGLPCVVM
NRAS Q61R, sequence (P62937 whole entry): as the sequence (P62937 whole entry) above
In short: (§2)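 TR-FRET disruption of nucleotide-loaded Ras binding to BRAF RBD via compound-driven ternary complex with cyclophilin A. Compound as 10-point 3-fold series from 30 μM final, 3 h at 25° C, then anti-His Eu-W1024 (10 nM) and anti-GST allophycocyanin (50 nM) for 1.5 h. IC50 from decreased FRET ratio versus DMSO.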

KRAS G12V = KRAS G12V (Homo sapiens (Human), UniProt P01116+P62937, G12V); assay: Ras-Raf (BRAF RBD) disruption / FRET / MOA assay, KRAS G12V; format: biochemical; details: read-out: IC50* KRAS G12V FRET data
KRAS G12V, sequence (P01116-2 other isoform, or with tags, fused parts or gaps G12V): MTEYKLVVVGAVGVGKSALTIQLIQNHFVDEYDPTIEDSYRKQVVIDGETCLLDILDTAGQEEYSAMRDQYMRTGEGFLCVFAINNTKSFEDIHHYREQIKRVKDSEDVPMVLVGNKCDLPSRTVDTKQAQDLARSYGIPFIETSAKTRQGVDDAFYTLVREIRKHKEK
KRAS G12V, sequence (P62937 whole entry): as the sequence (P62937 whole entry) above
In short: as §1

NRAS WT = NRAS WT (Homo sapiens (Human), UniProt P01111+P62937); assay: Ras-Raf (BRAF RBD) disruption / FRET / MOA assay, NRAS WT; format: biochemical; details: read-out: IC50* NRAS WT FRET data
NRAS WT, sequence (P01111 whole entry): as the sequence (P01111 whole entry Q61R) above, with R61Q counted along it
NRAS WT, sequence (P62937 whole entry): as the sequence (P62937 whole entry) above
In short: as §2

NRAS G12C = NRAS G12C (Homo sapiens (Human), UniProt P01111+P62937, G12C); assay: Ras-Raf (BRAF RBD) disruption / FRET / MOA assay, NRAS G12C; format: biochemical; details: read-out: IC50* NRAS G12C FRET data
NRAS G12C, sequence (P01111 whole entry G12C): as the sequence (P01111 whole entry Q61R) above, with G12C, R61Q counted along it
NRAS G12C, sequence (P62937 whole entry): as the sequence (P62937 whole entry) above
In short: as §1

K-Ras G13C, sequence (P01116-2 other isoform, or with tags, fused parts or gaps G13C): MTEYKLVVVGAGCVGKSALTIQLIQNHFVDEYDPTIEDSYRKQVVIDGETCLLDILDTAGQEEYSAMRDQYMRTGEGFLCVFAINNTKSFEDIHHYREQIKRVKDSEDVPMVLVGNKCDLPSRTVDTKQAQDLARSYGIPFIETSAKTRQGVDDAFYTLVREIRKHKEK
K-Ras G13C, sequence (P62937 whole entry): as the sequence (P62937 whole entry) above

| Compound | IC50 (K-Ras G13C) | IC50 (KRAS G12D) | IC50 (NCI-H358 (K-Ras G12C)) | IC50 (NRAS Q61R) | IC50 (KRAS G12V) | IC50 (NRAS WT) | IC50 (NRAS G12C) |
| --- | --- | --- | --- | --- | --- | --- | --- |
| C=CC(=O)N1CC2(CCN2C(=O)N(C)[C@H](C(=O)N[C@H]2Cc3cccc(n3)-c3ccc4c(c3)c(c(-c3cccnc3[C@H](C)OC)n4CC)CC(C)(C)COC(=O)[C@@H]3CCCN(N3)C2=O)C(C)C)C1 (atropisomer, axis not shown) [Example A636] | 0.1 to 1 µM | 1 to 10 µM | < 0.01 µM | 0.1 to 1 µM | 1 to 10 µM | 0.1 to 1 µM | 0.01 to 0.1 µM |
| CCn1c(-c2cccnc2[C@H](C)OC)c2c3cc(ccc31)-c1csc(n1)C[C@H](NC(=O)C[C@@H](C)OC1CN(C(=O)C#CC(C)(C)N(C)C)C1)C(=O)N1CCC[C@H](N1)C(=O)OCC(C)(C)C2 (atropisomer, axis not shown) [Example A638] | 1 to 10 µM | > 10 µM | 0.01 to 0.1 µM | 1 to 10 µM | 1 to 10 µM | 1 to 10 µM | < 0.01 µM |
| C=CC(=O)N1CC[C@H](C(=O)N(C)[C@H](C(=O)N[C@H]2Cc3cccc(c3)-c3ccc4c(c3)c(c(-c3cccnc3[C@H](C)OC)n4CC)CC(C)(C)COC(=O)[C@@H]3CCCN(N3)C2=O)[C@@H](C)C(F)(F)F)C1 (atropisomer, axis not shown) [Example A640] | 0.1 to 1 µM | 1 to 10 µM | 0.01 to 0.1 µM | 1 to 10 µM | 1 to 10 µM | 1 to 10 µM | 0.1 to 1 µM |
| CCn1c(-c2cccnc2[C@H](C)OC)c2c3cc(ccc31)N1CCO[C@@H](C[C@H](NC(=O)[C@H](C(C)C)N(C)C(=O)C3(F)CCN(C(=O)/C=C/CN(C)C)CC3)C(=O)N3CCC[C@H](N3)C(=O)OCC(C)(C)C2)C1 (atropisomer, axis not shown) [Example A645] | 0.1 to 1 µM | 1 to 10 µM | 0.01 to 0.1 µM | > 10 µM | 1 to 10 µM | 1 to 10 µM | 0.01 to 0.1 µM |
| CC#CC(=O)N1CC2(CCN2C(=O)N(C)[C@H](C(=O)N[C@H]2Cc3nc(cs3)-c3ccc4c(c3)c(c(-c3cccnc3[C@H](C)OC)n4CC)CC(C)(C)COC(=O)[C@@H]3CCCN(N3)C2=O)C(C)C)C1 (atropisomer, axis not shown) [Example A655] | 0.1 to 1 µM | 1 to 10 µM | 0.01 to 0.1 µM | 0.01 to 0.1 µM | 0.1 to 1 µM | 0.1 to 1 µM | 0.1 to 1 µM |
| C=CC(=O)N1CC[C@]2(CCN2C(=O)N(C)[C@H](C(=O)N[C@H]2Cc3nc(cs3)-c3ccc4c(c3)c(c(-c3cccnc3[C@H](C)OC)n4CC)CC(C)(C)COC(=O)[C@@H]3CCCN(N3)C2=O)C(C)C)C1 (atropisomer, axis not shown) [Example A662] | 0.1 to 1 µM | 0.1 to 1 µM | 0.01 to 0.1 µM | 0.1 to 1 µM | 0.1 to 1 µM | 0.1 to 1 µM | 0.01 to 0.1 µM |
| CCn1c(-c2cccnc2[C@H](C)OC)c2c3cc(ccc31)-c1csc(n1)C[C@H](NC(=O)[C@H](C(C)C)N(C)C(=O)N1CCCOC13CN(C(=O)C#CC(C)(C)N(C)C)C3)C(=O)N1CCC[C@H](N1)C(=O)OCC(C)(C)C2 (atropisomer, axis not shown) [Example A666] | > 10 µM | > 10 µM | 0.01 to 0.1 µM | > 10 µM | > 10 µM | > 10 µM | 1 to 10 µM |
| C=CC(=O)N1CC[C@]2(COCCN2C(=O)N(C)[C@H](C(=O)N[C@H]2Cc3nc(cs3)-c3ccc4c(c3)c(c(-c3cccnc3[C@H](C)OC)n4CC)CC(C)(C)COC(=O)[C@@H]3CCCN(N3)C2=O)C(C)C)C1 (atropisomer, axis not shown) [Example A676] | 1 to 10 µM | 1 to 10 µM | 0.01 to 0.1 µM | 0.1 to 1 µM | 1 to 10 µM | 0.1 to 1 µM | 0.01 to 0.1 µM |
